Reference: patent publication US7914831B2, “Synergistic anti-inflammatory pharmaceutical compositions and related methods using curcuminoids or methylxanthines” (priority 2004, dated 2011)
Converted amounts (≈) assume the structure as drawn.

Tested on: PGE2 production
Assay type: cell-based, murine
Settings: Mus musculus, RAW264.7; RAW 264.7, test material 60 min prior to 1.0 μg/mL LPS, PGE2 18 h post stimulation; read-out: IC50 (median inhibitory concentration for PGE2)

SMILES: Cn1c(=O)c2c(ncn2C)n(C)c1=O [Caffeine, caffeine]
- IC50: 25 µg/mL (≈ 129 µM)
